Experimental data taken from ChEMBL document CHEMBL4000214, “Lycopene pretreatment improves hepatotoxicity induced by acetaminophen in C57BL/6 mice” (2017).
Active and inactive are the calls of the source. No cut-off for these calls is given here.

Columns and labels:
[1] = system: Mus musculus; assay: (§1) Hepatoprotective activity against APAP overdose-induced liver injury in C57BL/6 mouse assessed as serum ALT level at 10 mg/kg, po pretreated via gavage for 14 consecutive days followed by APAP treatment 1 hr post last dose on day 14 measured 12 hrs post APAP treatment by spectrophotometric method (reference value: 166 +/- 1.7 IU); format: functional
[2] = system: Mus musculus; assay: as §1, with “100” for “10”; format: functional
[3] = system: Mus musculus; assay: as §1, with “AST” for “ALT”, “143.8” for “166”, “2.5” for “1.7”; format: functional
[4] = system: Mus musculus; assay: as §1, with “AST” for “ALT”, “100” for “10”, “143.8” for “166”, “2.5” for “1.7”; format: functional
[5] = system: Mus musculus; assay: (§2) Hepatoprotective activity against APAP overdose-induced liver injury in C57BL/6 mouse assessed as total cholesterol level in serum at 10 mg/kg, po pretreated via gavage for 14 consecutive days followed by APAP treatment 1 hr post last dose on day 14 measured 12 hrs post APAP treatment by spectrophotometric method (reference value: 42.2 +/- 3.5 mg/dl); format: functional
[6] = system: Mus musculus; assay: as §2, with “100” for “10”; format: functional
[7] = system: Mus musculus; assay: as §2, with “HDL” for “total cholesterol”, “10.8” for “42.2”, “0.6” for “3.5”; format: functional
[8] = system: Mus musculus; assay: as §2, with “HDL” for “total cholesterol”, “100” for “10”, “10.8” for “42.2”, “0.6” for “3.5”; format: functional
[9] = system: Mus musculus; assay: as §2, with “atherogenic fraction” for “total cholesterol level”, “28.8” for “42.2”, “2.6” for “3.5”; format: functional
[10] = system: Mus musculus; assay: as §2, with “atherogenic fraction” for “total cholesterol level”, “100” for “10”, “28.8” for “42.2”, “2.6” for “3.5”; format: functional
[11] = system: Mus musculus; assay: (§3) Hepatoprotective activity against APAP overdose-induced oxidative damage in C57BL/6 mouse assessed as decrease in lipid peroxidation in liver at 10 to 100 mg/kg, po pretreated via gavage for 14 consecutive days followed by APAP treatment 1 hr post last dose on day 14 measured 12 hrs post APAP treatment by TBARS assay; format: functional, organism-based
[12] = system: Mus musculus; assay: Hepatoprotective activity against APAP overdose-induced oxidative damage in po dosed C57BL/6 mouse assessed as decrease in carbonylated protein content in liver pretreated via gavage for 14 consecutive days followed by APAP treatment 1 hr post last dose on day 14 measured 12 hrs post APAP treatment by spectrophotometric method; format: functional, organism-based
[13] = system: Mus musculus; assay: as §3, with “restoration of APAP-induced loss” for “decrease”, “SOD activity” for “lipid peroxidation”, “liver by measuring SOD ability to dismutase superoxide anion” for “liver”, “spectrophotometric method” for “TBARS assay”; format: functional, organism-based
[14] = system: Mus musculus; assay: Hepatoprotective activity against APAP overdose-induced oxidative damage in C57BL/6 mouse assessed as restoration of APAP-induced loss in catalase activity in liver by measuring decrease in hydrogen peroxide level at 10 to 100 mg/kg, po pretreated via gavage for 14 consecutive days followed by APAP treatment 1 hr post last dose on day 14 measured 12 hrs post APAP treatment by spectrophotometric method; format: functional, organism-based
[15] = system: Mus musculus; assay: as §3, with “increase” for “decrease”, “GSH level” for “lipid peroxidation”, “DTNB reagent based” for “TBARS”; format: functional, organism-based
[16] = system: Mus musculus; assay: Hepatoprotective activity against APAP overdose-induced oxidative damage in C57BL/6 mouse assessed as decrease in GSSG level in liver at 10 mg/kg, po pretreated via gavage for 14 consecutive days followed by APAP treatment 1 hr post last dose on day 14 measured 12 hrs post APAP treatment; format: functional, organism-based
[17] = system: Mus musculus; assay: Hepatoprotective activity against APAP overdose-induced oxidative damage in C57BL/6 mouse assessed as decrease in GSSG level in liver at 100 mg/kg, po pretreated via gavage for 14 consecutive days followed by APAP treatment 1 hr post last dose on day 14 measured 12 hrs post APAP treatment; format: functional, organism-based
[18] = system: Mus musculus; assay: Hepatoprotective activity against APAP overdose-induced oxidative damage in C57BL/6 mouse assessed as inhibition of APAP-induced decrease in total GSH level in liver at 10 to 100 mg/kg, po pretreated via gavage for 14 consecutive days followed by APAP treatment 1 hr post last dose on day 14 measured 12 hrs post APAP treatment by DTNB reagent based assay; format: functional, organism-based
[19] = system: Mus musculus; assay: as §1, with “damage” for “injury”, “IL-1beta mRNA” for “ALT”, “RT-PCR” for “spectrophotometric”, “1.67” for “166”, “0.4)” for “1.7 IU)”; format: functional
[20] = system: Mus musculus; assay: as §1, with “damage” for “injury”, “IL-6 mRNA” for “ALT”, “RT-PCR” for “spectrophotometric”, “0.32” for “166”, “0.2)” for “1.7 IU)”; format: functional
[21] = system: Mus musculus; assay: as §1, with “damage” for “injury”, “IL-10 mRNA” for “ALT”, “RT-PCR” for “spectrophotometric”, “0.45” for “166”, “0.2)” for “1.7 IU)”; format: functional
[22] = system: Mus musculus; assay: as §1, with “damage” for “injury”, “IL-1beta mRNA” for “ALT”, “100” for “10”, “RT-PCR” for “spectrophotometric”, “1.67” for “166”, “0.4)” for “1.7 IU)”; format: functional
[23] = system: Mus musculus; assay: as §1, with “damage” for “injury”, “IL-6 mRNA” for “ALT”, “100” for “10”, “RT-PCR” for “spectrophotometric”, “0.32” for “166”, “0.2)” for “1.7 IU)”; format: functional
[24] = system: Mus musculus; assay: as §1, with “damage” for “injury”, “IL-10 mRNA” for “ALT”, “100” for “10”, “RT-PCR” for “spectrophotometric”, “0.45” for “166”, “0.2)” for “1.7 IU)”; format: functional
[25] = system: Mus musculus; assay: as §3, with “liver” for “oxidative”, “APAP-induced MMP2 activity” for “lipid peroxidation”, “coomassie brilliant blue staining based gelatin zymography” for “TBARS”; format: functional, organism-based
[26] = system: Mus musculus; assay: (§4) Hepatoprotective activity against APAP overdose-induced liver damage in C57BL/6 mouse assessed as decrease in liver necrotic area at 10 mg/kg, po pretreated via gavage for 14 consecutive days followed by APAP treatment 1 hr post last dose on day 14 measured 12 hrs post APAP treatment by hematoxylin and eosin staining based assay; format: functional, organism-based
[27] = system: Mus musculus; assay: as §4, with “100” for “10”; format: functional, organism-based

Q: Which Activity [1] does the source give for `CC(C)=CCC/C(C)=C/C=C/C(C)=C/C=C/C(C)=C/C=C/C=C(C)/C=C/C=C(C)/C=C/C=C(\C)CCC=C(C)C` [LYCOPENE] here?
A: 161.7 IU

Q: And the Activity [2]?
A: 164.1 IU

Q: What about the Activity [3] of the same compound?
A: 139.6 IU

Q: What about the Activity [4] of the same compound?
A: 139.8 IU

Q: And the Activity [5]?
A: 41 mg/dL

Q: And the Activity [6]?
A: 58.2 mg/dL

Q: What about the Activity [7] of the same compound?
A: 9 mg/dL

Q: And the Activity [8]?
A: 17 mg/dL

Q: What about the Activity [9] of the same compound?
A: 30 mg/dL

Q: What about the Activity [10] of the same compound?
A: 41.1 mg/dL

Q: What about the Activity [11] of the same compound?
A: Active

Q: And the Activity [12]?
A: Dose-dependent effect

Q: And the Activity [13]?
A: inactive

Q: And the Activity [14]?
A: Active

Q: What about the Activity [15] of the same compound?
A: Active

Q: And the Activity [16]?
A: inactive

Q: What about the Activity [17] of the same compound?
A: Active

Q: What about the Activity [18] of the same compound?
A: Active

Q: What about the Activity [19] of the same compound?
A: 0.68

Q: What about the Activity [20] of the same compound?
A: 0.37

Q: And the Activity [21]?
A: 0.57

Q: What about the Activity [22] of the same compound?
A: 0.58

Q: And the Activity [23]?
A: 0.4

Q: What about the Activity [24] of the same compound?
A: 0.3

Q: What about the Activity [25] of the same compound?
A: Active

Q: And the Activity [26]?
A: inactive

Q: What about the Activity [27] of the same compound?
A: Active
